Data on 7 compounds can be found in BindingDB's records for doi:10.1016/j.bmcl.2008.10.104 (Taisho Pharmaceutical, 2008).

In test [1] the target is Sodium- and chloride-dependent glycine transporter 2 (Rattus norvegicus) (UniProt P58295). The experiment in a line: Inhibition of [3H]glycine uptake at rat glycine transporter 2 expressed in african green monkey COS7 cells.
Test [2] concerns the target Sodium- and chloride-dependent glycine transporter 1 (Rattus norvegicus). The experiment in a line: Inhibition of [3H]glycine uptake at rat glycine transporter 1 expressed in african green monkey COS7 cells.

Molecules are shown by their SMILES. Residues, ends and D or L forms follow the SMILES beside them.

Sequence of Sodium- and chloride-dependent glycine transporter 2 (Rattus norvegicus) (P58295 whole entry, looked up): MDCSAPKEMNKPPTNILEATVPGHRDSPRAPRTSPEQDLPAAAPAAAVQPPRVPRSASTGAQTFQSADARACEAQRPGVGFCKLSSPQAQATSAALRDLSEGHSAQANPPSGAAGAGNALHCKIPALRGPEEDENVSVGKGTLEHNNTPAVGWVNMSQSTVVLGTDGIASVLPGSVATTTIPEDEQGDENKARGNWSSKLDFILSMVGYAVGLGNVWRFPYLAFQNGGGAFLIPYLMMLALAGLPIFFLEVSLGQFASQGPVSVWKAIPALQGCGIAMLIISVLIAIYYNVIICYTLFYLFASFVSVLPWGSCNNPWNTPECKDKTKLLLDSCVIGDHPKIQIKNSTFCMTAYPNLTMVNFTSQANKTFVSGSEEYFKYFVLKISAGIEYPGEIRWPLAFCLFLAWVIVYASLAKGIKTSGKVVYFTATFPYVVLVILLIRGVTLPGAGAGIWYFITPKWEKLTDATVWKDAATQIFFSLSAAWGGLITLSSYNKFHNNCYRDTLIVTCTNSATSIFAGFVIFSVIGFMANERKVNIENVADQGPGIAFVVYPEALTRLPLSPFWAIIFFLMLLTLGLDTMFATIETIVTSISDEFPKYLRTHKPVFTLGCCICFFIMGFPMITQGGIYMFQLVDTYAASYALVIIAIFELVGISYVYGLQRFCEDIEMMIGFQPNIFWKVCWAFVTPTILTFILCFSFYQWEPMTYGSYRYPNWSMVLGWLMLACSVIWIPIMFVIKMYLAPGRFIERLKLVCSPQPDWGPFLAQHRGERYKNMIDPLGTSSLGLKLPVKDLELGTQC

In the case of `N[C@@H](COC(c1cccc(F)c1)c1ccccc1OCc1ccccc1)C(=O)O` (stereo partly drawn) [(2S)-2-amino-3-((2-(benzyloxy)phenyl)(3-fluorophenyl)methoxy)propanoic acid], the IC50 (usually the concentration that inhibits the measured activity by half) in test [1] came out at 21.1 nM.

`CC[C@H](C)[C@@H]1NC(=O)[C@H](Cc2ccccc2)NC(=O)[C@H]([C@@H](C)CC)NC(=O)[C@H]([C@@H](C)CC)NC1=O` [(3S,6S,9S,12S)-3-benzyl-6,9,12-tri-sec-butyl-1,4,7,10-tetraazacyclododecane-2,5,8,11-tetraone] (cyclo(FIII)) yielded a 50% inhibitory concentration (IC50) in test [1] of 226 nM.

Consider `CC(C)[C@@H]1NC(=O)[C@H](Cc2ccccc2)NC(=O)[C@H]([C@H](C)[C@@H](C)O)NC(=O)[C@H](C(C)C)NC1=O` [(3S,6S,9S,12S)-3-benzyl-6-((2S,3R)-3-hydroxybutan-2-yl)-9,12-diisopropyl-1,4,7,10-tetraazacyclododecane-2,5,8,11-tetraone], for which the IC50 is 542 nM in test [1] and 11.1 nM in test [2]. On to `CC[C@H](C)[C@@H]1NC(=O)[C@H](Cc2ccccc2)NC(=O)[C@H]([C@H](C)[C@@H](C)O)NC(=O)[C@H]([C@@H](C)CC)NC1=O` [(3S,6S,9S,12S)-3-benzyl-9,12-di-sec-butyl-6-((2S,3R)-3-hydroxybutan-2-yl)-1,4,7,10-tetraazacyclododecane-2,5,8,11-tetraone], for which the IC50 worked out at 278 nM in test [1] and 3 nM in test [2].

The compound `CC[C@H](C)[C@@H]1NC(=O)[C@H](C(C)C)NC(=O)[C@H](Cc2ccccc2)NC(=O)[C@H]([C@H](C)[C@@H](C)O)NC1=O` [(3S,6S,9S,12S)-3-benzyl-9-sec-butyl-6-((2S,3R)-3-hydroxybutan-2-yl)-12-isopropyl-1,4,7,10-tetraazacyclododecane-2,5,8,11-tetraone] returned an IC50 in test [1] of 450 nM. Consider `CC[C@H](C)[C@@H]1NC(=O)[C@H](Cc2ccccc2)NC(=O)[C@H]([C@H](C)[C@@H](C)O)NC(=O)[C@H](C(C)C)NC1=O` [(3S,6S,9S,12S)-3-benzyl-12-sec-butyl-6-((2S,3R)-3-hydroxybutan-2-yl)-9-isopropyl-1,4,7,10-tetraazacyclododecane-2,5,8,11-tetraone], for which the concentration for half-maximal inhibition (IC50) was 574 nM in test [1] and 10.2 nM in test [2]. On to `CC[C@H](C)[C@@H]1NC(=O)[C@H](Cc2ccccc2)NC(=O)[C@H]([C@H](CS(=O)(=O)O)C(C)=O)NC(=O)[C@H]([C@@H](C)CC)NC1=O` [(S)-2-((2S,5S,8S,11S)-5-benzyl-8,11-di-sec-butyl-3,6,9,12-tetraoxo-1,4,7,10-tetraazacyclododecan-2-yl)-3-oxobutane-1-sulfonic acid], for which the concentration for half-maximal inhibition (IC50) came out at 2260 nM in test [1] and 20.4 nM in test [2].
